Measured values reported in publication PMC5218480 (PLoS ONE, 2017).

Test system: MV-4-11 cells
Assay: Gene expression microarray analysis (Affymetrix PrimeView) and GSEA
Type: cell-based, human
Parameters: RFU PODN (11730768_x_at) / Fold change /veh PODN (11730768_x_at) / RFU LINC00158 (11744669_a_at) / Fold change /veh LINC00158 (11744669_a_at) / RFU DUSP10 (11751237_a_at) / Fold change /veh DUSP10 (11751237_a_at) / RFU ID3 (11757404_x_at) / Fold change /veh ID3 (11757404_x_at) / RFU PLEKHG5 (11737974_s_at) / Fold change /veh PLEKHG5 (11737974_s_at) / RFU LRRC4B (11730491_at) / Fold change /veh LRRC4B (11730491_at) / RFU GIMAP4 (11747438_a_at) / Fold change /veh GIMAP4 (11747438_a_at) / RFU KRT8 (11758183_x_at) / Fold change /veh KRT8 (11758183_x_at) / RFU CNN1 (11734310_a_at) / Fold change /veh CNN1 (11734310_a_at) / RFU VPS37D (11726825_at) / Fold change /veh VPS37D (11726825_at) / RFU C10orf10 (11716522_x_at) / Fold change /veh C10orf10 (11716522_x_at) / RFU KIR2DL2 /// KIR2DL4 /// KIR2DL5A /// KIR2DL5B /// KIR2DS1 /// KIR2DS2 /// KIR2DS3 /// KIR2DS4 /// KIR3DL3 /// KIR3DL3 /// KIR3DS1 (11738374_at) / Fold change /veh KIR2DL2 /// KIR2DL4 /// KIR2DL5A /// KIR2DL5B /// KIR2DS1 /// KIR2DS2 /// KIR2DS3 /// KIR2DS4 /// KIR3DL3 /// KIR3DL3 /// KIR3DS1 (11738374_at) / RFU C1QL1 (11718748_at) / Fold change /veh C1QL1 (11718748_at) / RFU TMPRSS4 (11747572_a_at) / Fold change /veh TMPRSS4 (11747572_a_at) / RFU HAMP (11756126_x_at) / Fold change /veh HAMP (11756126_x_at) / RFU RNFT2 (11725882_a_at) / Fold change /veh RNFT2 (11725882_a_at) / RFU NR4A2 (11747474_a_at) / Fold change /veh NR4A2 (11747474_a_at) / RFU ABCC12 (11746883_a_at) / Fold change /veh ABCC12 (11746883_a_at) / RFU TMEM136 (11760407_x_at) / Fold change /veh TMEM136 (11760407_x_at) / RFU CLDN22 /// WWC2 (11732394_at) / Fold change /veh CLDN22 /// WWC2 (11732394_at) / RFU HLA-DPB1 (11760878_x_at) / Fold change /veh HLA-DPB1 (11760878_x_at) / RFU SPINT1 (11716480_a_at) / Fold change /veh SPINT1 (11716480_a_at) / RFU GAP43 (11754022_s_at) / Fold change /veh GAP43 (11754022_s_at) / RFU A4GNT (11735810_at) / Fold change /veh A4GNT (11735810_at) / RFU PRB3 (11715151_x_at) / Fold change /veh PRB3 (11715151_x_at) / RFU TUBB4B (11761932_at) / Fold change /veh TUBB4B (11761932_at) / RFU CAPN14 (11732068_a_at) / Fold change /veh CAPN14 (11732068_a_at) / RFU TMCC2 (11721928_a_at) / Fold change /veh TMCC2 (11721928_a_at) / RFU IRGQ (11745062_a_at) / Fold change /veh IRGQ (11745062_a_at) / RFU FAM174B (11720279_a_at) / Fold change /veh FAM174B (11720279_a_at) / RFU TMPRSS4 (11748680_a_at) / Fold change /veh TMPRSS4 (11748680_a_at) / RFU FAM212B (11763350_a_at) / Fold change /veh FAM212B (11763350_a_at) / RFU PLEKHG5 (11743358_a_at) / Fold change /veh PLEKHG5 (11743358_a_at) / RFU ZSCAN30 (11745921_a_at) / Fold change /veh ZSCAN30 (11745921_a_at) / RFU CMKLR1 (11741424_a_at) / Fold change /veh CMKLR1 (11741424_a_at) / RFU LOC101060620 /// MAPK8IP1 (11723275_at) / Fold change /veh LOC101060620 /// MAPK8IP1 (11723275_at) / RFU SPTSSB (11747773_x_at) / Fold change /veh SPTSSB (11747773_x_at) / RFU PRSS12 (11739890_at) / Fold change /veh PRSS12 (11739890_at) / RFU BIN1 (11741810_x_at) / Fold change /veh BIN1 (11741810_x_at) / RFU WNT11 (11732464_a_at) / Fold change /veh WNT11 (11732464_a_at) / RFU C10orf10 (11716521_a_at) / Fold change /veh C10orf10 (11716521_a_at) / RFU C5orf56 (11738089_at) / Fold change /veh C5orf56 (11738089_at) / RFU CYB561 (11721691_x_at) / Fold change /veh CYB561 (11721691_x_at) / RFU ANKRD19P (11752326_a_at) / Fold change /veh ANKRD19P (11752326_a_at) / RFU OR2T12 /// OR2T33 /// OR2T8 (11738714_s_at) / Fold change /veh OR2T12 /// OR2T33 /// OR2T8 (11738714_s_at) / RFU VCAN (11748164_a_at) / Fold change /veh VCAN (11748164_a_at) / RFU JSRP1 (11732532_at) / Fold change /veh JSRP1 (11732532_at) / RFU KRTAP10-11 (11738290_x_at) / Fold change /veh KRTAP10-11 (11738290_x_at) / RFU MYO3A (11730013_a_at) / Fold change /veh MYO3A (11730013_a_at) / RFU EBF3 (11725865_a_at) / Fold change /veh EBF3 (11725865_a_at) / RFU CAMK2N1 (11719241_x_at) / Fold change /veh CAMK2N1 (11719241_x_at) / RFU C5orf56 (11738088_a_at) / Fold change /veh C5orf56 (11738088_a_at) / RFU OLFML3 (11715873_a_at) / Fold change /veh OLFML3 (11715873_a_at) / RFU LOC100653217 /// NTM (11731650_a_at) / Fold change /veh LOC100653217 /// NTM (11731650_a_at) / RFU MAPK11 (11762145_a_at) / Fold change /veh MAPK11 (11762145_a_at) / RFU FIZ1 (11724087_x_at) / Fold change /veh FIZ1 (11724087_x_at) / RFU OASL (11726364_x_at) / Fold change /veh OASL (11726364_x_at) / RFU SOX15 (11748057_x_at) / Fold change /veh SOX15 (11748057_x_at) / RFU CD79A (11719716_a_at) / Fold change /veh CD79A (11719716_a_at) / RFU HIST1H1D (11736915_at) / Fold change /veh HIST1H1D (11736915_at) / RFU CASKIN2 (11723855_a_at) / Fold change /veh CASKIN2 (11723855_a_at) / RFU LOC730098 (11760151_x_at) / Fold change /veh LOC730098 (11760151_x_at) / RFU OR4N2 (11742367_at) / Fold change /veh OR4N2 (11742367_at) / RFU PRRT2 (11749266_a_at) / Fold change /veh PRRT2 (11749266_a_at) / RFU SNX32 (11753110_a_at) / Fold change /veh SNX32 (11753110_a_at) / RFU CDHR5 (11726645_a_at) / Fold change /veh CDHR5 (11726645_a_at) / RFU RCAN1 (11760418_a_at) / Fold change /veh RCAN1 (11760418_a_at) / RFU FAM167A (11723789_a_at) / Fold change /veh FAM167A (11723789_a_at) / RFU FAM26E (11764081_at) / Fold change /veh FAM26E (11764081_at) / RFU ISYNA1 (11749810_s_at) / Fold change /veh ISYNA1 (11749810_s_at) / RFU ACY1 (11761880_at) / Fold change /veh ACY1 (11761880_at) / RFU 11764098_at / Fold change /veh 11764098_at / RFU SAMD14 (11745864_x_at) / Fold change /veh SAMD14 (11745864_x_at) / RFU NPB (11741838_a_at) / Fold change /veh NPB (11741838_a_at) / RFU TMPRSS6 (11731388_a_at) / Fold change /veh TMPRSS6 (11731388_a_at) / RFU KRTAP10-2 (11738614_at) / Fold change /veh KRTAP10-2 (11738614_at) / RFU ARHGAP8 /// PRR5-ARHGAP8 (11727945_x_at) / Fold change /veh ARHGAP8 /// PRR5-ARHGAP8 (11727945_x_at) / RFU KRTAP5-7 /// NADSYN1 (11734609_at) / Fold change /veh KRTAP5-7 /// NADSYN1 (11734609_at) / RFU RASL12 (11751679_a_at) / Fold change /veh RASL12 (11751679_a_at) / RFU CDKN2B (11736163_a_at) / Fold change /veh CDKN2B (11736163_a_at) / RFU PRF1 (11729649_at) / Fold change /veh PRF1 (11729649_at) / RFU, ZNF638 /// ZNF638-IT1 / Fold change vs veh, ZNF638 /// ZNF638-IT1 / RFU, PANK3 / Fold change vs veh, PANK3 / RFU, SH3YL1 / Fold change vs veh, SH3YL1 / RFU, ZEB2 / Fold change vs veh, ZEB2 / RFU, NRIP1 / Fold change vs veh, NRIP1 / RFU, PTTG1IP / Fold change vs veh, PTTG1IP / RFU, CAPN2 / Fold change vs veh, CAPN2 / RFU, MED14 / Fold change vs veh, MED14 / RFU, SNORA58 / Fold change vs veh, SNORA58 / RFU, C1orf63 / Fold change vs veh, C1orf63 / RFU, LRRFIP1 / Fold change vs veh, LRRFIP1 / RFU, NDUFAF7 / Fold change vs veh, NDUFAF7 / RFU, SLC12A2 / Fold change vs veh, SLC12A2 / RFU, IBTK / Fold change vs veh, IBTK / RFU, ESF1 / Fold change vs veh, ESF1 / Fold change vs veh, TMEM50B / RFU, TAOK1 / Fold change vs veh, TAOK1 / RFU, ACBD3 / Fold change vs veh, ACBD3 / RFU, TMA16 / Fold change vs veh, TMA16 / RFU, RWDD3 / Fold change vs veh, RWDD3 / RFU, BCAT1 / Fold change vs veh, BCAT1 / RFU, EDEM3 / Fold change vs veh, EDEM3 / RFU, TMEM33 / Fold change vs veh, TMEM33 / RFU, WDR75 / Fold change vs veh, WDR75 / RFU, AHCTF1 / Fold change vs veh, AHCTF1 / RFU, TFRC / Fold change vs veh, TFRC / RFU, ZDHHC17 / Fold change vs veh, ZDHHC17 / RFU, NOM1 / Fold change vs veh, NOM1 / RFU, ARL8B / Fold change vs veh, ARL8B / RFU, ZBTB11 / Fold change vs veh, ZBTB11 / RFU, TAMM41 / Fold change vs veh, TAMM41 / RFU, KIAA1704 /// LOC100996395 / Fold change vs veh, KIAA1704 /// LOC100996395 / RFU, ING1 / Fold change vs veh, ING1 / RFU, TRMT61B / Fold change vs veh, TRMT61B / RFU, FUBP3 / Fold change vs veh, FUBP3 / RFU, TP53 / Fold change vs veh, TP53 / RFU, TNKS2 / Fold change vs veh, TNKS2 / RFU, ZFP14 / Fold change vs veh, ZFP14 / RFU, ACTR2 / Fold change vs veh, ACTR2 / RFU, PPP3R1 / Fold change vs veh, PPP3R1 / RFU, PIK3R1 / Fold change vs veh, PIK3R1 / RFU, HNRNPA1 / Fold change vs veh, HNRNPA1 / RFU, RNF170 / Fold change vs veh, RNF170 / RFU, ZNF28 / Fold change vs veh, ZNF28 / RFU, RNGTT / Fold change vs veh, RNGTT / RFU, OGT / Fold change vs veh, OGT / RFU, BRD1 / Fold change vs veh, BRD1 / RFU, MARS / Fold change vs veh, MARS / RFU, ZNF655 / Fold change vs veh, ZNF655 / RFU, FAHD1 / Fold change vs veh, FAHD1 / RFU, BDP1 / Fold change vs veh, BDP1 / RFU, LRRCC1 / Fold change vs veh, LRRCC1 / RFU, ARID1A / Fold change vs veh, ARID1A / RFU, ZNF146 / Fold change vs veh, ZNF146 / RFU, ZNF330 / Fold change vs veh, ZNF330 / RFU, GPN3 / Fold change vs veh, GPN3 / RFU, C9orf123 / Fold change vs veh, C9orf123 / RFU, N4BP2L2 / Fold change vs veh, N4BP2L2 / RFU, ARFIP1 / Fold change vs veh, ARFIP1 / RFU, FAM179B / Fold change vs veh, FAM179B / RFU, BCL10 / Fold change vs veh, BCL10 / RFU, UHRF1BP1L / Fold change vs veh, UHRF1BP1L / RFU, BET1 / Fold change vs veh, BET1 / RFU, CNOT2 / Fold change vs veh, CNOT2 / RFU, ZNF268 / Fold change vs veh, ZNF268 / Fold change vs veh, ZNF507 / RFU, DGCR2 / Fold change vs veh, DGCR2 / RFU, WDSUB1 / Fold change vs veh, WDSUB1 / Fold change vs veh, HSP90B1 /// MIR3652 / RFU, ADSS / Fold change vs veh, ADSS / RFU, GK / Fold change vs veh, GK / RFU, ZNF148 / Fold change vs veh, ZNF148 / RFU, TAF9 / Fold change vs veh, TAF9 / RFU, SLC1A5 / Fold change vs veh, SLC1A5 / RFU, SLMO2 / Fold change vs veh, SLMO2 / RFU, ABCC4 / Fold change vs veh, ABCC4 / RFU, LOC101060439 /// RAP1B / Fold change vs veh, LOC101060439 /// RAP1B / RFU, RFX7 / Fold change vs veh, RFX7 / RFU, GTPBP10 / Fold change vs veh, GTPBP10 / RFU, CNEP1R1 / Fold change vs veh, CNEP1R1 / RFU, BIVM-ERCC5 /// ERCC5 / Fold change vs veh, BIVM-ERCC5 /// ERCC5 / RFU, ILF3 / Fold change vs veh, ILF3 / RFU 11762660_at / Fold change /veh 11762660_at / RFU VCAN (11757783_s_at) / Fold change /veh VCAN (11757783_s_at) / RFU DDX43 (11728927_at) / Fold change /veh DDX43 (11728927_at) / RFU KRT8 (11758188_x_at) / Fold change /veh KRT8 (11758188_x_at) / RFU NKD1 (11759106_at) / Fold change /veh NKD1 (11759106_at) / RFU SRD5A1 (11742802_a_at) / Fold change /veh SRD5A1 (11742802_a_at) / RFU TPSAB1 /// TPSB2 (11721975_s_at) / Fold change /veh TPSAB1 /// TPSB2 (11721975_s_at) / RFU GSTM3 (11746129_a_at) / Fold change /veh GSTM3 (11746129_a_at) / RFU IL23R (11737362_x_at) / Fold change /veh IL23R (11737362_x_at) / RFU TMEM51 (11727254_a_at) / Fold change /veh TMEM51 (11727254_a_at) / RFU PIWIL2 (11732686_x_at) / Fold change /veh PIWIL2 (11732686_x_at) / RFU ORM1 (11744905_x_at) / Fold change /veh ORM1 (11744905_x_at) / RFU CCDC152 (11743942_at) / Fold change /veh CCDC152 (11743942_at) / RFU ECM1 (11717891_a_at) / Fold change /veh ECM1 (11717891_a_at) / RFU IL23R (11748794_a_at) / Fold change /veh IL23R (11748794_a_at) / RFU TNFAIP8L3 (11732012_x_at) / Fold change /veh TNFAIP8L3 (11732012_x_at) / RFU MBOAT4 (11741988_at) / Fold change /veh MBOAT4 (11741988_at) / RFU 11764193_at / Fold change /veh 11764193_at / RFU TMEM53 (11763286_at) / Fold change /veh TMEM53 (11763286_at) / RFU MAGEB2 (11727129_at) / Fold change /veh MAGEB2 (11727129_at) / RFU TMEM200A (11744735_a_at) / Fold change /veh TMEM200A (11744735_a_at) / RFU CCDC152 (11751479_a_at) / Fold change /veh CCDC152 (11751479_a_at) / RFU FAM211A (11726209_a_at) / Fold change /veh FAM211A (11726209_a_at) / RFU RGS16 (11746705_a_at) / Fold change /veh RGS16 (11746705_a_at) / RFU VCAN (11755009_s_at) / Fold change /veh VCAN (11755009_s_at) / RFU RHOB (11743442_s_at) / Fold change /veh RHOB (11743442_s_at) / RFU RGS16 (11720943_a_at) / Fold change /veh RGS16 (11720943_a_at) / RFU RGS16 (11720944_at) / Fold change /veh RGS16 (11720944_at) / RFU, VPS4B / Fold change vs veh, VPS4B / RFU, CREB1 / Fold change vs veh, CREB1 / RFU, DNAJC13 / Fold change vs veh, DNAJC13 / RFU, GNAQ / Fold change vs veh, GNAQ / RFU, CDK5R1 / Fold change vs veh, CDK5R1 / RFU, ZRANB3 / Fold change vs veh, ZRANB3 / RFU, CUL4A / Fold change vs veh, CUL4A / RFU, CCNY / Fold change vs veh, CCNY / RFU, UFL1 / Fold change vs veh, UFL1 / RFU, COG3 / Fold change vs veh, COG3 / RFU, DIAPH2 / Fold change vs veh, DIAPH2 / RFU, SKA2 / Fold change vs veh, SKA2 / RFU, AFF3 / Fold change vs veh, AFF3 / RFU, LMF1 / Fold change vs veh, LMF1 / RFU, IPO11 / Fold change vs veh, IPO11 / RFU, DFFB / Fold change vs veh, DFFB / RFU, FOXP1 / Fold change vs veh, FOXP1 / RFU, CARD8 / Fold change vs veh, CARD8 / RFU, STRN3 / Fold change vs veh, STRN3 / RFU, ADK / Fold change vs veh, ADK / RFU, RASSF2 / Fold change vs veh, RASSF2 / RFU, WIPF1 / Fold change vs veh, WIPF1 / RFU, LARP1B / Fold change vs veh, LARP1B / RFU, RASA1 / Fold change vs veh, RASA1 / RFU, RB1 / Fold change vs veh, RB1 / RFU, PPFIA1 / Fold change vs veh, PPFIA1 / RFU, MAT2A / Fold change vs veh, MAT2A / RFU, CCT5 / Fold change vs veh, CCT5 / RFU, WDR92 / Fold change vs veh, WDR92 / RFU, CUX1 / Fold change vs veh, CUX1 / RFU, TTC7A / Fold change vs veh, TTC7A / RFU, TMEM135 / Fold change vs veh, TMEM135 / RFU, DEPTOR / Fold change vs veh, DEPTOR / RFU, CPM / Fold change vs veh, CPM / RFU, DNAJB6 / Fold change vs veh, DNAJB6 / RFU, CACNA2D3 / Fold change vs veh, CACNA2D3 / RFU, DTX4 / Fold change vs veh, DTX4 / RFU, TFCP2 / Fold change vs veh, TFCP2 / RFU, GMCL1 /// GMCL1P1 / Fold change vs veh, GMCL1 /// GMCL1P1 / RFU, AEBP2 / Fold change vs veh, AEBP2 / RFU, SNHG1 /// SNORD22 /// SNORD25 /// SNORD26 /// SNORD27 /// SNORD28 /// SNORD29 /// SNORD31 / Fold change vs veh, SNHG1 /// SNORD22 /// SNORD25 /// SNORD26 /// SNORD27 /// SNORD28 /// SNORD29 /// SNORD31 / Fold change (Aza/veh), C12orf56 (ProbeSet 11735607_a_at) / Fold change (ACY-1035/veh), C12orf56 (ProbeSet 11735607_a_at) / Fold change (Aza/veh), FGFR1OP (ProbeSet 11751329_s_at) / Fold change (ACY-1035/veh), FGFR1OP (ProbeSet 11751329_s_at) / Fold change (Aza/veh), VPS36 (ProbeSet 11739960_a_at) / Fold change (ACY-1035/veh), VPS36 (ProbeSet 11739960_a_at) / RFU SYPL1 (11715823_x_at) / Fold change /veh SYPL1 (11715823_x_at) / RFU IGFBP7 (11715501_s_at) / Fold change /veh IGFBP7 (11715501_s_at) / RFU REEP3 (11722064_at) / Fold change /veh REEP3 (11722064_at) / RFU IGLL1 (11728026_x_at) / Fold change /veh IGLL1 (11728026_x_at): dose or concentration left out as unconfirmed
Details: ProbeSet 11725901_x_at; LIST B

## Nc1ccc(-c2cccs2)cc1NC(=O)c1ccc2c(c1)cc(C1CC1)n2CCN1CCOCC1 [ACY-1035]
  RFU, RWDD3: 19.72 RFU
